Target: T1, human ADRA2B receptor (Homo sapiens, UniProt P18089)
T1 construct: expressed in transfected cells
T1 sequence (P18089 1-450): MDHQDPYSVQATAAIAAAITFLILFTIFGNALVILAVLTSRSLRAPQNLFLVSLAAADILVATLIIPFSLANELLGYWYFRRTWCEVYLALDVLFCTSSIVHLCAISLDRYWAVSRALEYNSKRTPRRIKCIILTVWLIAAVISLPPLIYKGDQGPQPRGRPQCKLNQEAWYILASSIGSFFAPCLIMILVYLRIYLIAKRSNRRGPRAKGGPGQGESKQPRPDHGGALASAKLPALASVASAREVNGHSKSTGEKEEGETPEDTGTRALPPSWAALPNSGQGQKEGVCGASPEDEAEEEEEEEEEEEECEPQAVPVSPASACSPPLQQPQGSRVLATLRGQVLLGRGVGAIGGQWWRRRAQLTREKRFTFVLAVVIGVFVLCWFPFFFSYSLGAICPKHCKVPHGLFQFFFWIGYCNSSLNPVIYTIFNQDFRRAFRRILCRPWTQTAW
Assay: ADRA2B arrestin agonist assay
Assay type: cell-based
Conditions: CHO-K1 cells stably expressing human ADRA2B; read-out: Beta-Arrestin - Human Alpha2B EC50
Method in brief: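 CHO-K1 cells stably expressing human ADRA2B, thawed from frozen stock and plated overnight, were treated with agonist for 2 h at 37 °C. Arrestin recruitment detected by luminescence after 2 h with detection reagents at room temperature.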

SMILES | EC50 [µM]
c1cc2c(c(C(Cc3cnco3)c3c[nH]cn3)c1)OCC2 (stereo not shown) [Compound 390, 5-[2-(2,3-dihydro-1-benzofuran-7-yl)-2-(4-imidazolyl)ethyl] 1,3-oxazole] | 0.01 to 0.05
Cc1cccc(C(Cc2cnsc2)c2c[nH]cn2)c1C (stereo not shown) [Compound 391, 4-[2-(4-imidazolyl)-2-(2,3-xylyl)ethyl]isothiazole] | < 0.01
Fc1c(Cl)cccc1C(Cc1cnco1)c1c[nH]cn1 (stereo not shown) [Compound 392, 5-[2-(3-chloro-2-fluorophenyl)-2-(4-imidazolyl)ethyl]-1,3-oxazole] | 0.01 to 0.05
COc1cc(Cl)cc(CC(c2c[nH]cn2)c2cccc3c2OCC3)n1 (stereo not shown) [Compound 393, 4-[2-(4-chloro-6-methoxy-2-pyridyl)-1-(2,3-dihydro-1-benzofuran-7-yl)ethyl]imidazole] | 0.01 to 0.05
CCc1cccc(C(Cc2ccn3ccnc3c2)c2c[nH]cn2)c1O (stereo not shown) [Compound 397, 2-[2-(1,3a-diaza-6-indenyl)-1-(4-imidazolyl)ethyl]-6-ethylphenol] | > 0.5
c1cc2c(c(C(Cc3ccn4ccnc4c3)c3c[nH]cn3)c1)OCC2 (stereo not shown) [Compound 398, 4-[2-(1,3a-diaza-6-indenyl)-1-(2,3-dihydro-1-benzofuran-7-yl)ethyl]imidazole] | < 0.01
c1cc2c(c(C(Cc3cccn4ccnc34)c3c[nH]cn3)c1)OCC2 (stereo not shown) [Compound 400, 4-[2-(1,3a-diaza-7-indenyl)-1-(2,3-dihydro-1-benzofuran-7-yl)ethyl]imidazole] | > 0.5
Cc1cccc(C(Cc2ccn3ccnc3c2)c2c[nH]cn2)c1C (stereo not shown) [Compound 403, 4-[2-(1,3a-diaza-6-indenyl)-1-(2,3-xylyl)ethyl]imidazole] | 0.01 to 0.05
Cc1cccc(C(Cc2cn(C3CC3)nn2)c2c[nH]cn2)c1C (stereo not shown) [Compound 404, 1-cyclopropyl-4-[2-(4-imi-dazolyl)-2-(2,3-xylyl)ethyl]-1H-1,2,3-triazole] | < 0.01
Cc1cccc(C(Cn2cccn2)c2c[nH]cn2)c1C (stereo not shown) [Compound 406, 1-[2-(4-imi-dazolyl)-2-(2,3-xylyl)ethyl]pyra-zole] | 0.01 to 0.05

Continued, values first:

EC50 [µM] | SMILES
> 0.5 | COc1c(C)cccc1C(Cc1cocn1)c1c[nH]cn1 (stereo not shown) [Compound 388, 4-[2-(4-imidazolyl)-2-(2-methoxy-3-tolyl)ethyl]-1,3-oxazole-formic acid (1/1)]
0.05 to 0.5 | COc1c(C)cccc1C(Cc1cccc(C)n1)c1c[nH]cn1 (stereo not shown) [Compound 389, 4-[1-(2-methoxy-3-tolyl)-2-(6-methyl-2-pyridyl)ethyl]imida-zole-formic acid (1/1)]
< 0.01 | Cc1cccc(C(Cc2ccncc2F)c2c[nH]cn2)c1C (stereo not shown) [Compound 394, 4-[2-(3-fluoro-4-pyridyl)-1-(2,3-xylyl)ethyl]imidazole]
< 0.01 | Cc1cc(CC(c2c[nH]cn2)c2cccc(C)c2C)c(Cl)cn1 (stereo not shown) [Compound 395, 4-[2-(5-chloro-2-methyl-4-pyridyl)-1-(2,3-xylyl)ethyl]imidazole]
< 0.01 | Cc1cccc(C(Cc2ccncc2Cl)c2c[nH]cn2)c1C (stereo not shown) [Compound 396, 4-[2-(3-chloro-4-pyridyl)-1-(2,3-xylyl)ethyl]imidazole]
< 0.01 | Cc1cccc(C(Cc2ccnn2C)c2c[nH]cn2)c1Cl (stereo not shown) [Compound 399, 5-[2-(2-chloro-3-tolyl)-2-(4-imidazolyl)ethyl]-1-methylpyrazole]
< 0.01 | Cc1cccc(C(Cc2ccc3nccn3c2)c2c[nH]cn2)c1C (stereo not shown) [Compound 401, 4-[2-(1,3a-diaza-5-indenyl)-1-(2,3-xylyl)ethyl]imidazole]
0.01 to 0.05 | Cc1cccc(C(Cc2cccn3ccnc23)c2c[nH]cn2)c1C (stereo not shown) [Compound 402, 4-[2-(1,3a-diaza-7-indenyl)-1-(2,3-xylyl)ethyl]imidazole]
< 0.01 | Cc1cccc(C(Cc2ccnc(C3CCO3)n2)c2c[nH]cn2)c1C (stereo not shown) [Compound 405, 4-[2-(2,3-dimethylphenyl)-2-(1H-imidazol-4-yl)ethyl]-2-(oxetan-2-yl)pyrimidine]
